Entries after “also recorded” stand apart in the source; their conditions may differ.
Legend:
[1] = target: T1, iPLA2 (GVIA) (Homo sapiens, UniProt O60733); assay: standard iPLA2 (GVIA) activity assay, DPPC/Triton X-100 mixed micelles; format: biochemical; conditions: at 0.091 mol fraction
T1 sequence (O60733 1-806): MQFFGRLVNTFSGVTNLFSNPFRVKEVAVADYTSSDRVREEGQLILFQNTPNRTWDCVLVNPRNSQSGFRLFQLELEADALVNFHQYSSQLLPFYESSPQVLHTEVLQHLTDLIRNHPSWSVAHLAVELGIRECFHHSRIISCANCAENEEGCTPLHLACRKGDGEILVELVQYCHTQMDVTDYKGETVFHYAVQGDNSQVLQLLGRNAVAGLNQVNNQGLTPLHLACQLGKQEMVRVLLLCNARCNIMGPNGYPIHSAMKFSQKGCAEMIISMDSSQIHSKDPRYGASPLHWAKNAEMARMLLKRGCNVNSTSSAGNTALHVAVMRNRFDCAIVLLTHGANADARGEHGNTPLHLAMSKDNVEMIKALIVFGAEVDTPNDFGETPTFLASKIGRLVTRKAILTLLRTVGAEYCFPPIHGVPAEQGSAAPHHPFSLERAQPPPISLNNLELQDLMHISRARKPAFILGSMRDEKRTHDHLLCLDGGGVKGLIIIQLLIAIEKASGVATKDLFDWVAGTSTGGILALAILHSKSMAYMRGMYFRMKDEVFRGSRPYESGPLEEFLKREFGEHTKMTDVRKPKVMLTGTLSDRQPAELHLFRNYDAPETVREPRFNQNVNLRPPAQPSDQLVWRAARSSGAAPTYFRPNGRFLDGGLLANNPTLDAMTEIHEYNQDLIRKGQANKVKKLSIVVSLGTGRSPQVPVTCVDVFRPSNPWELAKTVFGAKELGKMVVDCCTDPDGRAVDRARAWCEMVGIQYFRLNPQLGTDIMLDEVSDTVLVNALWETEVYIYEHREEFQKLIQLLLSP
Experimental: The compounds described herein were tested for inhibition of PLA2s in in vitro assay systems. The data, summarized in the Examples, are represented as XI(50) values unless otherwise noted. XI(50) is defined as the inhibitor concentration that produced 50% inhibition. XI(50) is used as opposed to the more common IC50 because GIVA and GVIA PLA2 are active at a two-dimensional lipid interface rather than in three-dimensional solution. (Deems, Anal. Biochem., 287:1-16, 2000).
For the groups that received delayed treatment after symptoms occurred, mice were treated with daily intraperitoneal injections of AX059 starting from the first day of clinical symptoms, beginning on day 11; and AX115 starting from the first day of clinical peak (i.e., score 4), beginning of day 14. All inhibitors were administered for 2 weeks. The selectivity of the compounds for the different PLA2s is shown as the percentage inhibition in Table 1. The XI(50) is the mole fraction of the inhibitor in the total substrate interface required to inhibit the enzyme by 50%.
Compound AX115 was tested for its ability to inhibit human cPLA2 (GIVA) in a cPLA2 (GIVA) specific assay that uses mixed micelles of the substrate 1-palmitoyl-2-arachidonyl phosphatidylcholine and the detergent Triton X-100 (97:3) containing phosphatidylinositol 4,5-bisphosphate (400 μM) as previously described. […]

[2] = target: T2, sPLA2 (GV) (Homo sapiens, UniProt P39877); assay: sPLA2 inhibition assay; format: biochemical; conditions: at 0.091 mol fraction
T2 sequence (P39877 21-138): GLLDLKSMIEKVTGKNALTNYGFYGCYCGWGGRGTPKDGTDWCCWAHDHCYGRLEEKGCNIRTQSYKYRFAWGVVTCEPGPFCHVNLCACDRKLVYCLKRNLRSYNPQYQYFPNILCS
Experimental: The compounds described herein were tested for inhibition of PLA2s in in vitro assay systems. The data, summarized in the Examples, are represented as XI(50) values unless otherwise noted. XI(50) is defined as the inhibitor concentration that produced 50% inhibition. XI(50) is used as opposed to the more common IC50 because GIVA and GVIA PLA2 are active at a two-dimensional lipid interface rather than in three-dimensional solution. (Deems, Anal. Biochem., 287:1-16, 2000). For the groups that received delayed treatment after symptoms occurred, mice were treated with daily intraperitoneal injections of AX059 starting from the first day of clinical symptoms, beginning on day 11; and AX115 starting from the first day of clinical peak (i.e., score 4), beginning of day 14. All inhibitors were administered for 2 weeks. The selectivity of the compounds for the different PLA2s is shown as the percentage inhibition in Table 1. The XI(50) is the mole fraction of the inhibitor in the total substrate interface required to inhibit the enzyme by 50%. PLA2 inhibitors. It has been previously reported that long chain 2-oxoamides based on gamma-amino acids are potent inhibitors of cPLA2 (GIVA). […] A 2-oxoamide based on a glycine methyl ester, AX115, inhibits sPLA2 (GV) as well as cPLA2 (GIVA) and iPLA2 (GVIA). […]

[3] = system: SJL/J mice induced with EAE; assay: EAE model of multiple sclerosis, clinical score; format: in vivo, mouse

For CCCCCCCCCCCCCCC(=O)C(=O)NCC(=O)OC [AX115], the “Inhibition iPLA2GIVA” value [1] was 45%, the “Inhibition sPLA2 GIVA/GV*” value [2] was 52% and the “mean maximal peak clinical grade at day 17” value ([3]; delayed treatment from peak of first attack, did not differ from vehicle) was ~3. For the same compound, the “clinical score on day 35” value ([3]; delayed treatment from peak of first attack, vehicle 2.3) was 2.8, the “clinical score on day 23” value ([3]; delayed treatment from peak of first attack, vehicle about 1.4) was 2.5 and the “clinical course of EAE vs vehicle control” value ([3]; delayed treatment from peak of first clinical attack (day 14), daily i.p.) was “prevents remission of the disease; also recorded: remission was prevented; also recorded: worsened the disease”. For the same compound, the “clinical course of EAE vs vehicle control” value ([3]; treatment before onset of symptoms, from day 5/6 after immunization, daily for 3 weeks) was “no statistical significance; also recorded: did not differ from vehicle treated control mice; also recorded: did not substantially differ from vehicle treated controls”.

Source: patent US8420852B2, “Phospholipase A2 inhibitors and their use in treating neurological injury and disease” (The Regents of the University of California, priority 2007, dated 2013)
